# Starred links: 1 amine or outer side, 2 acyl side, 3 side chain; linkers in the order of their positions; H or OH if unused. Positions of bridges follow the written chain, without caps; N, C: chain ends. Non-standard residues stand in square brackets, D forms with d. Residues, ends and D or L forms follow the SMILES beside them. X1 = CC1CC(C2=NC(C(=O)[*:2])CS2)N1[*:1]; NMeV = CN[CH](C(=O)O)C(C)C; X2 = O=C(C(O)CO[*:2])[*:1]; Pip = O=C(O)[CH]1CCCCN1; Dhb = C/C=C(\N)C(=O)O
# Experiments:
# [1] = tested on: type I IFN response (IFN-β induced Mx2-driven luciferase activity); assay: Type I IFN reporter cell assay (Mx2-driven Firefly luciferase, NIH3T3 Mx2-Luc2); type: cell-based, murine
# Description: In FIG. 6A the type I IFN reporter cells were pretreated with different concentrations of Vioprolide A (0, 5, 10, 30, 50 or 100 ng/ml). After pre-treatment for two hours cells were stimulated with IFN-β (500 U/ml) in the continuous presence of the indicated Vioprolide concentrations. In FIG. 6B type I IFN reporter cells were pretreated with IFN-β ([…]). After four hours cells were additionally stimulated with different concentrations of Vioprolide A (0, 5, 10, 30, 50 or 100 ng/ml). Untreated cells were used as control (Crtl). Luciferase activity was measured after 24 hours and relative luminescent units (RLU) were calculated to one μg of protein detected by Bradford assay.
# For measuring type I IFNs BAC-based reporter constructs have been used. BACs harbouring the cDNA of Firefly luciferase 2 (luc2) under control of the Mx2 promoter were engineered, NIH3T3 Mx2-Luc2. The change from Luc+ (pGL3 basic, Promega) used in the before mentioned reporter constructs to the next generation luciferase (pGL4.10, Promega) was performed, as Luc2 theoretically promised to achieve higher signal intensities and therefore might also be more practicable for further in vivo imaging experiments. This newly generated BAC was electroporated into the murine fibroblast cell line NIH/3T3.
# After overnight incubation luciferase activity was determined and calculated according to protein levels to scale with the antiproliferative effects of Vioprolide. […] The median inhibitory concentration (IC50), which reduces IFN-induced responses by 50%, was calculated to be 10 ng/ml of Vioprolide A.
# In FIG. 6A type I IFN reporter cells, NIH3T3 Mx2-Luc2 were pretreated with different concentrations of Vioprolide A (−, 5, 10, 30, 50 or 100 ng/ml). After pre-treatment for two hours cells were stimulated with IFN-β (500 U/ml) in the continuous presence of the indicated Vioprolide concentrations. In FIG. […] type I IFN reporter cells were pretreated with IFN-β (500 U/ml). After four hours cells were additionally stimulated with different concentrations of Vioprolide A (−, 5, 10, 30, 50 or 100 ng/ml). Untreated cells were used as control (CM). Luciferase activity was measured after 24 hours and relative luminescent units (RLU) were calculated to one μg of protein detected by Bradford assay.
# Next, the effect of Vioprolide A on previously activated type I IFN signalling was addressed. This was performed to exclude a direct inhibitory interaction of this natural compound with IFN molecules or their cognate receptors type I IFN reporter cells were therefore stimulated with IFN-β four hours prior to treatment with different Vioprolide A concentrations. After overnight incubation cells were harvested and luciferase activity was assayed. […] A first significant reduction of luciferase activity (for p<0.05) could be visualized with 30 ng/ml Vioprolide A (FIG. 6B). The IC50 was identified to 20 ng/ml.
# [2] = tested on: type II IFN response (IFN-γ, Gbp2 promoter); assay: Type II IFN reporter cell assay (Gbp2-driven Renilla luciferase, NIH3T3 Gbp2-RLuc); type: cell-based, murine; conditions: 500 U/ml IFN-γ, Vioprolide A one hour later, all concentrations tested (50, 100, 200 ng/ml); not related to protein
# Description: IFN-γ reporter NIH/3T3 cells harbouring the recombinant BAC Gbp2RLuc were seeded on 96-well-plates and treated with IFN-γ ([…]) or left untreated (“−”). After one hour cells were exposed to different concentrations of Vioprolide A (−, 50, 100 or 200 ng/ml) and incubated overnight. Gbp2-driven Renilla luciferase expression was determined by luciferase assay. Results are expressed as fold induction of basal expression (n=3).
# In addition, Vioprolide A might also modulate type II IFN responses. […] Hereby, expression of Renilla luciferase is driven by the type II IFN responsive promoter of the Gbp2 gene obtained using a BAC containing the GBP2 gene locus and following the method described above. In this experiment, reporter cells, NIH3T3 Gbp2-RLuc were seeded on […], stimulated with 500 U/ml IFN-γ and one hour later incubated with different concentrations of Vioprolide A. Afterwards the IFN response was analysed by quantifying Renilla luciferase activity. Since this assay was performed on a microtiter format, quantification of protein amounts by former used BCA as well as Bradford assay was impossible. […] Thus, evidence for a negative influence of Vioprolide A on both type I and type II IFN responses was provided.
# [3] = tested on: type I interferon response (Mx2-promoter controlled luciferase); assay: Bioluminescent imaging of type I IFN reporter mice (BAC Mx2Luc2); type: in vivo; conditions: 20 μg i.v., IFN-β i.v. after 1 h
# Description: In FIG. 8 the inhibitory response of Vioprolide A on the type I interferon response is shown. In FIG. 8A a female type I IFN reporter mice, which contain the IFN-responsive BAC Mx2Luc2, were i.v. treated with 20 μg of Vioprolide A (in 100% EtOH). First image was taken immediately after Vioprolide A treatment. After 1 h mice were i.v. injected with 5.000 U/ml IFN-β (PBL). Three hours after IFN-treatment second series of images were taken. For control one animal was only treated with Vioprolide A or with IFN, respectively. Bioluminescent images were obtained using the IVIS200 System (Xenogen). […] Rainbow scales indicate number of photons measured per second×cm2×sr.
# For the following in vivo experiment 20 μg of Vioprolide A were employed. This amount was calculated according to a publication appointing the lethal dose of this compound to be 3 mg/kg and moreover to concentrations used for anti-tumour studies Thus, type I IFN reporter mice were intravenously injected with Vioprolide A and subjected for bioluminescent imaging. After one hour mice were additionally treated with IFN-β and responses were assessed after a three-hour incubation time. […]
# In FIG. 8A female type I IFN reporter mice, which contain the IFN-responsive BAC Mx2Luc2, were i.v. treated with 20 μg of Vioprolide A (in 100% EtOH). […] Rainbow scales indicate number of photons measured per second×cm2×sr.
# [4] = tested on: type I IFN responses (IFN-inducible Mx2-promoter, tdTomato); assay: Mx2Tom reporter cells, tdTomato expression by flow cytometry; type: cell-based; conditions: IFN-β plus different concentrations, overnight incubation
# Description: This allowed assessment of the Vioprolide A effect on the IFN system on a single cell level. Thus, cells were stimulated with IFN-β as wells as different concentrations of Vioprolide A and expression of tdTomato was analyzed after overnight incubation using flow cytometry.
# [5] = tested on: vesicular stomatitis virus (VSV); type: cell-based
# [6] = according to a publication; cited from earlier work
structure (smiles),measurement,setting,value
C/C=C1\NC(=O)C2CSC(=N2)C2CC(C)N2C(=O)C(CC(C)C)NC(=O)C(C)NC(=O)C(O)COC(=O)C(C(C)C)N(C)C(=O)C(C(C)O)NC(=O)C2CCCCN2C1=O (stereo not shown) [Vioprolide A] (AL[X1][Dhb][Pip]T[NMeV]; linker N-C via X2; configuration not given here),reporter expression,"[1]; 100 ng/ml, IFN-β four hours prior to treatment",significant reduction of reporter expression
same,Mx2-driven luciferase activity at strongest inhibition,"[1]; 100 ng/ml, pre-treatment 2 h before IFN-β, FIG. 6A",dramatic decrease of Mx2-driven luciferase activity down to background levels
same,IC50 on previously activated type I IFN signalling,"[1]; IFN-β (500 U/ml) four hours prior to Vioprolide A, FIG. 6B",0.02 µg/mL
same,concentration giving first significant reduction of luciferase activity (p<0.05),"[1]; IFN-β four hours prior to Vioprolide A, FIG. 6B",30 ng/mL
same,"median inhibitory concentration (IC50), which reduces IFN-induced responses by 50%","[1]; Vioprolide A two hours prior to IFN-β (500 U/ml), luciferase related to protein, FIG. 6A",0.01 µg/mL
same,impact on IFN responses in vitro compared within the class of Vioprolides,"[1]; cell culture systems, screening",highest impact on IFN responses in vitro
same,effect on the type I IFN response,"[1]; pre-treatment 2 h before IFN-β, all concentrations tested (5-100 ng/ml)",inhibitory effect
same,response to type II IFN (Renilla luciferase activity),[2],decreased response to type II IFN
same,light emission after IFN treatment relative to combined IFN and Vioprolide stimulation,"[3]; 3 h after IFN, average radiance, FIG. 8B",ten times higher
same,luciferase activity by optical imaging versus animal given IFN-β alone,"[3]; imaging 3 h after IFN, one mouse per stimulation",less luciferase activity
same,effect on tdTomato reporter expression,[4],dose-dependent inhibitory effect
same,effect on IFN-mediated antiviral activities,[5],inhibitory effect on IFN-mediated antiviral activities
same,lethal dose,[6],3 mg/kg
